# In patent US20210323950A1, “HERBICIDALLY ACTIVE BICYCLIC BENZOYLPYRAZOLES” (Bayer Aktiengesellschaft, priority 2018, published 2021):
# Legend:
# Type in all cases: in vivo
# [1] = system: Echinochloa crus-galli (ECHCG); test: Pre-emergence herbicidal action against ECHCG; conditions: scored visually after about 3 weeks vs untreated controls
# [2] = system: Abutilon theophrasti (ABUTH); test: Pre-emergence herbicidal action against ABUTH; conditions: scored visually after about 3 weeks vs untreated controls
# How it was run: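 Sown pots had WP or EC formulations sprayed onto the covering soil as aqueous suspension/emulsion with 0.5% additive, then were kept in a greenhouse. After about 3 weeks, damage was scored visually as % versus untreated controls (100% = plants dead, 0% = like controls).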
# [3] = system: Veronica persica (VERPE); test: Pre-emergence herbicidal action against VERPE; conditions: scored visually after about 3 weeks vs untreated controls
# How it was run: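 Weed seeds were sown in pots and covered with soil. Pots were kept in the greenhouse and damage was scored visually after about 3 weeks as percent versus untreated controls (100% = plants died).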
# [4] = system: Amaranthus retroflexus (AMARE); test: Post-emergence herbicidal action against AMARE; conditions: 20 g/ha, post-emergence at one-leaf stage, rated visually after about 3 weeks vs untreated controls
# How it was run: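 Greenhouse-grown plants in sandy loam were treated at the one-leaf stage, 2–3 weeks after sowing. Activity was rated visually after about 3 weeks against untreated controls (100% = plants dead, 0% = like control).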
# [5] = system: Viola tricolor (VIOTR); test: Post-emergence herbicidal action against VIOTR; conditions: 20 g/ha, post-emergence at one-leaf stage, rated visually after about 3 weeks vs untreated controls
# Description: (§1) VIOTR: Viola tricolor 2. Post-Emergence Herbicidal Action and Crop Plant Compatibility Seeds of monocotyledonous and dicotyledonous weeds and crop plants are placed in sandy loam in plastic or organic planting pots, covered with soil and cultivated in a greenhouse under controlled growth conditions. 2 to 3 weeks after sowing, the test plants are treated at the one-leaf stage. The compounds of the invention, formulated in the form of wettable powders (WP) or as emulsion concentrates (EC), are then sprayed onto the green parts of the plants as aqueous suspension or emulsion with addition of 0.5% additive at a water application rate of […] (converted). After the test plants had been kept in the greenhouse under optimum growth conditions for about 3 weeks, the activity of the preparations is rated visually in comparison to untreated controls. The tables below show the herbicidal activity of numerous compounds according to the invention against important harmful plants. For example, 100% activity=the plants have died, 0% activity=like control plants.
# [6] = system: Echinochloa crus-galli (ECHCG); test: Post-emergence herbicidal action against ECHCG; conditions: 20 g/ha, post-emergence at one-leaf stage, rated visually after about 3 weeks vs untreated controls
# How it was run: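 Greenhouse plants in sandy loam were sprayed at the one-leaf stage, 2-3 weeks after sowing. Activity was scored visually after about 3 weeks against untreated controls (0% = like control, 100% = dead).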
# [7] = system: Abutilon theophrasti (ABUTH); test: Post-emergence herbicidal action against ABUTH; conditions: 20 g/ha, post-emergence at one-leaf stage, rated visually after about 3 weeks vs untreated controls
# Description: as §1, with “ABUTH: Abutilon theophrasti” for “VIOTR: Viola tricolor”
SMILES,Pre-emergence action against ECHCG ([1]; 80 g/ha),Pre-emergence action against ABUTH ([2]; 80 g/ha),Pre-emergence action against VERPE ([3]; 80 g/ha),Post-emergence action against AMARE [4],Post-emergence action against VIOTR [5],Post-emergence action against ECHCG [6],Post-emergence action against ABUTH [7],Pre-emergence action against ECHCG ([1]; 320 g/ha),Pre-emergence action against ABUTH ([2]; 320 g/ha),Pre-emergence action against VERPE ([3]; 320 g/ha)
Cn1ncc(C(=O)c2ccc(C(F)(F)F)c3c2OCCS3(=O)=O)c1O [Example 1-45],100%,100%,100%,100%,90%,–,–,–,–,–
Cc1nn(C)c(O)c1C(=O)c1ccc(C(F)(F)F)c2c1OCC[S+]2[O-] (stereo not shown) [Example 1-40],80%,100%,–,80%,80%,90%,80%,–,–,–
Cn1nc(C2CC2)c(C(=O)c2ccc(C(F)(F)F)c3c2OCC[S+]3[O-])c1O (stereo not shown) [Example 1-116],80%,80%,80%,90%,–,100%,90%,–,–,–
Cn1ncc(C(=O)c2ccc(C(F)(F)F)c3c2OCS3)c1O [Example 1-13],–,–,–,90%,–,90%,90%,100%,100%,100%
Cn1ncc(C(=O)c2ccc(C(F)(F)F)c3c2OCC[S+]3[O-])c1O (stereo not shown) [Example 1-30],100%,100%,–,100%,90%,100%,80%,–,–,–
Cc1nn(C)c(O)c1C(=O)c1ccc(C(F)(F)F)c2c1OCCS2(=O)=O [Example 1-55],100%,100%,90%,100%,80%,100%,90%,–,–,–
Cn1ncc(C(=O)c2ccc(C(F)(F)F)c3c2OCCS3)c1O [Example 1-15],80%,–,90%,80%,80%,80%,–,–,–,–
Cn1ncc(C(=O)c2ccc(C(F)(F)F)c3c2OC[S+]3[O-])c1O (stereo not shown) [Example 1-28],–,–,–,100%,90%,90%,90%,100%,100%,100%
Cn1ncc(C(=O)c2ccc(C(F)(F)C(F)(F)F)c3c2OCS3)c1O [Example 1-128],90%,90%,–,80%,–,90%,–,–,–,–
CCn1ncc(C(=O)c2ccc(C(F)(F)F)c3c2OCC[S+]3[O-])c1O (stereo not shown) [Example 1-35],100%,100%,–,100%,100%,80%,90%,–,–,–
CCn1ncc(C(=O)c2ccc(C(F)(F)F)c3c2OCCS3(=O)=O)c1O [Example 1-50],100%,100%,90%,100%,–,80%,90%,–,–,–
